Consider eleven molecules from patent US20120028888A1, “APJ RECEPTOR COMPOUNDS” (priority 2008, published 2012).

Assay [1] deals with T1, Gi-coupled receptor APJ (HEK cells stably expressing the APJ receptor) (Homo sapiens, UniProt P35414).
T1 construct: expressed in transfected cells; host or cells: HEK cells stably expressing APJ
T1 sequence (P35414 1-380): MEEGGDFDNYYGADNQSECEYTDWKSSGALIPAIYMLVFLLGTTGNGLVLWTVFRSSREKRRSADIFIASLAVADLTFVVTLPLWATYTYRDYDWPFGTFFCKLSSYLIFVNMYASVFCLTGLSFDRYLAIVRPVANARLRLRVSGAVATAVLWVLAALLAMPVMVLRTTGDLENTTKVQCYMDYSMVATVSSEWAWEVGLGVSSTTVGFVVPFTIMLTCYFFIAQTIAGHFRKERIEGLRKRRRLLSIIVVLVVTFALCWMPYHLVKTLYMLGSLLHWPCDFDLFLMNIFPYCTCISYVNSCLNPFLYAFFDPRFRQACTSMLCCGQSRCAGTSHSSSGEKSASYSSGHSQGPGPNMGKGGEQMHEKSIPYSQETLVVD
Put plainly: HTRF cAMP assay: inhibition of NKH477 stimulated increase in cAMP. It counts as cell-based. The conditions noted are these: read-out: EC50 value (nM), SEM. An excerpt:
HTRF (homogeneous time resolved fluorescence) is a technology developed by Cisbio Bioassays based on TR-FRET (time-resolved fluorescence resonance energy transfer). Cisbio Bioassays has developed a wide selection of HTRF-based assays compatible with whole cells, thereby enabling functional assays to run under more physiological conditions. The IP-One assays are competitive immunoassays using cryptate-labeled anti-IPI monoclonal antibody and d2-labeled IP1. IP1 is a relatively stable downstream metabolite of IP3, and accumulates in cells following Gq receptor activation.
cAMP kits based on a competitive immunoassay using cryptate-labeled anti-cAMP antibody and d2-labeled cAMP were used to assay the effects of APJ compounds of the present invention. This assay measures the increase in intracellular cAMP upon Gs-coupled receptor activation as well as decrease in forskolin (or a more soluble version of forskolin—NKH477) stimulated increase in cAMP upon Gi-coupled receptor activation.

For another assay, the target named is APJ receptor (Homo sapiens (Human), UniProt P35414). As to the kind of experiment: cell-based or functional assay.

Residues, ends and D or L forms follow the SMILES beside them. *: point of attachment. Palmitoyl = CCCCCCCCCCCCCCCC(=O)*

As to `CCCCCCCCCCCCCCCC(=O)N[C@@H](Cc1ccccc1)C(=O)N[C@@H](CCCNC(=N)N)C(=O)N[C@@H](CO)C(=O)N[C@@H](CO)C(=O)N[C@@H](CCCNC(=N)N)C(=O)N[C@@H](CCC(=O)O)C(=O)N[C@@H](CCCCN)C(=O)N[C@@H](CCCNC(=N)N)C(=O)N[C@@H](CCCNC(=N)N)C(=O)N[C@@H](CO)C(=O)N[C@@H](C)C(=O)N[C@@H](CC(=O)O)C(=O)N[C@H](C(=O)N[C@@H](Cc1ccccc1)C(=O)N[C@H](C(N)=O)[C@@H](C)CC)[C@@H](C)CC` [Compound 11] (Palmitoyl-FRSSREKRRSADIFI-NH2), the EC50 in assay [1] is 1 to 500 nM.
The same measure, in the same setting: to `CCCCCCCCCCCCCCCC(=O)N[C@H](C(=O)N[C@H](C(=O)N[C@@H](Cc1ccccc1)C(=O)N[C@@H](CCCNC(=N)N)C(=O)N[C@@H](CO)C(=O)N[C@@H](CO)C(=O)N[C@@H](CCCNC(=N)N)C(=O)N[C@@H](CCC(=O)O)C(=O)N[C@@H](CCCCN)C(=O)N[C@@H](CCCNC(=N)N)C(=O)N[C@@H](CCCNC(=N)N)C(=O)N[C@@H](CO)C(=O)N[C@@H](C)C(=O)N[C@@H](CC(=O)O)C(=O)N[C@H](C(=O)N[C@@H](Cc1ccccc1)C(=O)N[C@H](C(=O)O)[C@@H](C)CC)[C@@H](C)CC)C(C)C)[C@@H](C)O` [Compound 42] (Palmitoyl-TVFRSSREKRRSADIFI-OH) belongs 1000 to 5000 nM; to `CCCCCCCCCCCCCCCC(=O)N[C@H](C(=O)N[C@H](C(=O)N[C@@H](Cc1ccccc1)C(=O)N[C@@H](CCCNC(=N)N)C(=O)N[C@@H](CO)C(=O)N[C@@H](CO)C(=O)N[C@@H](CCCNC(=N)N)C(=O)N[C@@H](CCC(=O)O)C(=O)N[C@@H](CCCCN)C(=O)N[C@@H](CCCNC(=N)N)C(=O)N[C@@H](CCCNC(=N)N)C(=O)N[C@@H](C)C(=O)N[C@@H](C)C(=O)N[C@@H](CC(=O)O)C(=O)N[C@H](C(=O)N[C@@H](Cc1ccccc1)C(=O)N[C@H](C(N)=O)[C@@H](C)CC)[C@@H](C)CC)C(C)C)[C@@H](C)O` [Compound 32] (Palmitoyl-TVFRSSREKRRAADIFI-NH2), 1 to 500 nM; to `CCCCCCCCCCCCCCCC(=O)N[C@H](C(=O)N[C@@H](CO)C(=O)N[C@@H](CO)C(=O)N[C@@H](CCCNC(=N)N)C(=O)N[C@@H](CCC(=O)O)C(=O)N[C@@H](CCCCN)C(=O)N[C@@H](CCCNC(=N)N)C(=O)N[C@@H](CCCNC(=N)N)C(=O)N[C@@H](CO)C(=O)N[C@@H](C)C(=O)N[C@@H](CC(=O)O)C(=O)N[C@H](C(=O)N[C@@H](Cc1ccccc1)C(=O)N[C@H](C(N)=O)[C@@H](C)CC)[C@@H](C)CC)C(C)C` [Compound 25] (Palmitoyl-VSSREKRRSADIFI-NH2), 1000 to 5000 nM.
Same read-out and setting: to `CCCCCCCCCCCCCCCC(=O)N[C@@H](CO)C(=O)N[C@@H](CO)C(=O)N[C@@H](CCCNC(=N)N)C(=O)N[C@@H](CCC(=O)O)C(=O)N[C@@H](CCCCN)C(=O)N[C@@H](CCCNC(=N)N)C(=O)N[C@@H](CCCNC(=N)N)C(=O)N[C@@H](CO)C(=O)N[C@@H](C)C(=O)N[C@@H](CC(=O)O)C(=O)N[C@H](C(=O)N[C@@H](Cc1ccccc1)C(=O)N[C@H](C(=O)N[C@@H](C)C(N)=O)[C@@H](C)CC)[C@@H](C)CC` [Compound 33] (Palmitoyl-SSREKRRSADIFIA-NH2) belongs over 10000 nM; to `CCCCCCCCCCCCCCCC(=O)N[C@H](C(=O)N[C@H](C(=O)N[C@@H](Cc1ccccc1)C(=O)N[C@@H](C)C(=O)N[C@@H](CO)C(=O)N[C@@H](CO)C(=O)N[C@@H](CCCNC(=N)N)C(=O)N[C@@H](CCC(=O)O)C(=O)N[C@@H](CCCCN)C(=O)N[C@@H](CCCNC(=N)N)C(=O)N[C@@H](CCCNC(=N)N)C(=O)N[C@@H](CO)C(=O)N[C@@H](C)C(=O)N[C@@H](CC(=O)O)C(=O)N[C@H](C(=O)N[C@@H](Cc1ccccc1)C(=O)N[C@H](C(N)=O)[C@@H](C)CC)[C@@H](C)CC)C(C)C)[C@@H](C)O` [Compound 24] (Palmitoyl-TVFASSREKRRSADIFI-NH2), 1000 to 5000 nM.
Still for that read-out and setting: to `CCCCCCCCCCCCCCCC(=O)N[C@H](C(=O)N[C@@H](CCCNC(=N)N)C(=O)N1CCC[C@H]1C(=O)N[C@H](C(=O)N[C@@H](C)C(=O)N[C@@H](CC(N)=O)C(=O)N[C@@H](C)C(=O)N[C@@H](CCCNC(=N)N)C(=O)N[C@@H](CC(C)C)C(=O)N[C@@H](CCCNC(=N)N)C(=O)N[C@@H](CC(C)C)C(=O)N[C@@H](CCCNC(=N)N)C(=O)N[C@H](C(N)=O)C(C)C)C(C)C)C(C)C` [Compound 85] (Palmitoyl-VRPVANARLRLRV-NH2) belongs over 10000 nM; to `CCCCCCCCCCCCCCCC(=O)N[C@H](C(=O)N[C@H](C(=O)N[C@@H](Cc1ccccc1)C(=O)N[C@@H](Cc1c[nH]c2ccccc12)C(=O)N[C@@H](CO)C(=O)N[C@@H](CO)C(=O)N[C@@H](CCCNC(=N)N)C(=O)N[C@@H](CCC(=O)O)C(=O)N[C@@H](CCCCN)C(=O)N[C@@H](CCCNC(=N)N)C(=O)N[C@@H](CCCNC(=N)N)C(=O)N[C@@H](CO)C(=O)N[C@@H](C)C(=O)N[C@@H](CC(=O)O)C(=O)N[C@H](C(=O)N[C@@H](Cc1ccccc1)C(=O)N[C@H](C(N)=O)[C@@H](C)CC)[C@@H](C)CC)C(C)C)[C@@H](C)O` [Compound 36] (Palmitoyl-TVFWSSREKRRSADIFI-NH2), 1000 to 5000 nM.
In the case of `CCCCCCCCCCCCCCCC(=O)N[C@@H](C)C(=O)N[C@H](C(=O)N[C@H](C(=O)N[C@@H](CCCNC(=N)N)C(=O)N1CCC[C@H]1C(=O)N[C@H](C(=O)N[C@@H](C)C(=O)N[C@@H](CC(N)=O)C(=O)N[C@@H](C)C(=O)N[C@@H](CCCNC(=N)N)C(=O)N[C@@H](CC(C)C)C(=O)N[C@@H](CCCNC(=N)N)C(=O)N[C@@H](CC(C)C)C(=O)N[C@@H](CCCNC(=N)N)C(=O)N[C@H](C(=O)N[C@@H](CO)C(=O)NCC(N)=O)C(C)C)C(C)C)C(C)C)[C@@H](C)CC` [Compound 78] (Palmitoyl-AIVRPVANARLRLRVSG-NH2), the EC50 in assay [1] is over 10000 nM.

B1: Compound 11 Pal-FRSSREKRRSADIFI-Amide (peptide)
peptide: Palmitoyl-FRSSREKRRSADIFI-NH2
SMILES: CCCCCCCCCCCCCCCC(=O)N[C@@H](Cc1ccccc1)C(=O)N[C@@H](CCCNC(=N)N)C(=O)N[C@@H](CO)C(=O)N[C@@H](CO)C(=O)N[C@@H](CCCNC(=N)N)C(=O)N[C@@H](CCC(=O)O)C(=O)N[C@@H](CCCCN)C(=O)N[C@@H](CCCNC(=N)N)C(=O)N[C@@H](CCCNC(=N)N)C(=O)N[C@@H](CO)C(=O)N[C@@H](C)C(=O)N[C@@H](CC(=O)O)C(=O)N[C@H](C(=O)N[C@@H](Cc1ccccc1)C(=O)N[C@H](C(N)=O)[C@@H](C)CC)[C@@H](C)CC
On to B1, for which the “EC50 value (nM), HTRF cAMP assay” value in the assay with APJ receptor was at most 500 nM.

B2: Compound 12 Pal-TVFRSSREKRRSADIFI-Amide (peptide)
peptide: Palmitoyl-TVFRSSREKRRSADIFI-NH2
SMILES: CCCCCCCCCCCCCCCC(=O)N[C@H](C(=O)N[C@H](C(=O)N[C@@H](Cc1ccccc1)C(=O)N[C@@H](CCCNC(=N)N)C(=O)N[C@@H](CO)C(=O)N[C@@H](CO)C(=O)N[C@@H](CCCNC(=N)N)C(=O)N[C@@H](CCC(=O)O)C(=O)N[C@@H](CCCCN)C(=O)N[C@@H](CCCNC(=N)N)C(=O)N[C@@H](CCCNC(=N)N)C(=O)N[C@@H](CO)C(=O)N[C@@H](C)C(=O)N[C@@H](CC(=O)O)C(=O)N[C@H](C(=O)N[C@@H](Cc1ccccc1)C(=O)N[C@H](C(N)=O)[C@@H](C)CC)[C@@H](C)CC)C(C)C)[C@@H](C)O
For B2, in the assay with APJ receptor, the “EC50 value (nM), HTRF cAMP assay” value was at most 500 nM.
